Assay: in vitro
Settings: human, hela cells, % viability

| SMILES | viability at 28.5 h, 10 µM [%] | viability at 28.5 h, 10 µM (bulk resorufin, single well) [%] |
| --- | --- | --- |
| COc1ccccc1-c1cnc(N)c(NCc2ccccc2)n1 [CBK063357] | 94.3 |  |
| O=C(Nc1ccc(F)cc1)c1sccc1NS(=O)(=O)c1cc(F)c(Br)cc1F [CBK004586] | 94.4 |  |
| N=c1c2c3c(sc2ncn1CCCN1CCOCC1)CCCC3 [CBK268323] | 94.6 |  |
| NS(=O)(=O)c1ccc(CCNC(=O)CN2C(=O)c3ccccc3C2=O)cc1 [CBK264377] | 96 |  |
| COc1nccnc1-c1ccc(Cl)c(Cl)c1 [CBK107110] | 98.7 |  |
| CC(=O)Nc1ccc(S(=O)(=O)Nc2ccc(-c3nc4cc(C(=O)c5ccccc5)ccc4[nH]3)cc2)cc1 [CBK267819] | 99.2 |  |
| C=C(C)Cn1c(SC(C)C)nnc1-c1cccnc1 [CBK200073] | 85.7 |  |
| CN(C)S(=O)(=O)NCCc1ccc(S(N)(=O)=O)cc1 [CBK022388] | 99.5 |  |
| O=C(CN1CCOCC1)NC1(c2ccccc2)CCCCC1 [CBK059545C] | 85.6 |  |
| Cc1nn(C)c(C)c1CN(C(=O)C(C)Oc1cccc(F)c1)C1CC1 (centres unmarked) [CBK281479] | 93.7 |  |
| COc1ncc(-c2ccc(Nc3ccc(N4CCOCC4)cc3)nc2)c(OC)n1 [CBK036988] | 95 |  |
| COc1ccc(N2C(=O)CC(NNC(N)=O)C2=O)cc1 (centres unmarked) [CBK263080] | 92.1 |  |
| CCCN1CC(NS(=O)(=O)c2ccc3oc(=O)n(C)c3c2)CC1=O (centres unmarked) [CBK307664] | 92.6 |  |
| Cc1ccc(-c2cc(C(=O)O)c3cc4c(C(=O)O)cc(-c5ccc(C)o5)nc4cc3n2)o1 [CBK264342] | 87.4 |  |
| CCC(=O)Nc1ccc(O)cc1C(=O)O [CBK126818] | 92.8 |  |
| CC(=O)c1ccc(-n2ncc(-c3ccc(F)cc3)n2)cc1 [CBK112889] | 100 |  |
| O=S(=O)(Nc1ccc(N2CCOCC2)cc1)c1cccc(OC(F)(F)F)c1 [CBK296759] | 95.1 |  |
| COc1cc(CNc2cncc(-c3ccc(F)cc3F)n2)cc(OC)c1OC [CBK065826] | 115 |  |
| COc1ccccc1Cc1cccc(C2CCCN2C(=O)Cc2c[nH]c3ccccc23)n1 (centres unmarked) [CBK286139] | 95.2 |  |
| Cc1cc(C)c2oc(-c3ccc(Cl)c(NC(=O)Cc4ccc(Cl)cc4)c3)nc2c1 [CBK264695] | 97.8 |  |
| O=C(COc1ccc(F)cc1)Nc1cccc2[nH]ccc12 [CBK159653] | 86 |  |
| Cc1csc2c(C3CCN(C(=O)c4cscn4)CC3)nc(C)n12 [CBK285246] | 80.2 |  |

| SMILES | viability at 28.5 h, 10 µM [%] | viability at 28.5 h, 10 µM (bulk resorufin, single well) [%] |
| --- | --- | --- |
| CC(C)(C)C(O)CNc1ncnc2ccc(S(C)(=O)=O)cc12 (centres unmarked) [CBK306494] | 76.8 |  |
| C=CCN1C(=O)CC2(C1=O)C(=O)N(Cc1csc(-c3ccccc3)n1)c1ccc(Cl)cc12 (centres unmarked) [CBK075445] | 99.6 |  |
| CCN1CCCC1CNC(=O)c1cccc(Cl)c1 (centres unmarked) [CBK262621] | 84.3 |  |
| O=S(=O)(c1ccc(Cl)s1)N1CCN(c2ccccn2)CC1 [CBK270305] | 110 |  |
| CCc1nsc(N2CCC(Oc3cccnc3N(C)C)C2)n1 (centres unmarked) [CBK304498] | 110 |  |
| Cc1nccn1CC1CCCN(Cc2ccnc3ccccc23)C1 (centres unmarked) [CBK281966] | 84.7 |  |
| CC(C)CCn1c(=S)[nH]c2c(oc3ccccc32)c1=O [CBK288504] | 100 |  |
| N#CC1CCCc2c1[nH]c1ccc(Br)cc21 (centres unmarked) [CBK026475] | 64.7 |  |
| CC(CNC(=O)COc1cc(Cl)c(Cl)cc1Cl)CN(C)C (centres unmarked) [CBK266766] | 88.1 |  |
| O=C(C1CCC1)N1CCC(c2onc3c2CCCCC3)CC1 [CBK284496] | 104 |  |
| CCCCOC(=O)c1c(N)n(CCOC)c2nc3ccccc3nc12 [CBK264961] | 96.9 |  |
| COCCCn1c(=O)[nH]c2ncc(-c3ccc(C(=O)N4CCOCC4)cc3)nc21 [CBK064366] | 97.8 |  |
| C(=N\N=C(/c1ccccc1)C12CN3CN(CN(C3)C1)C2)/c1ccc2c(c1)OCO2 [CBK261816] | 102 |  |
| Cn1cc(CN2CCOC(c3nc(C(C)(C)C)cs3)C2)nn1 (centres unmarked) [CBK304783] | 90.5 |  |
| O=C(NCCc1c[nH]cn1)NC12CC3CC(CC(C3)C1)C2 [CBK269880] | 86.2 |  |
| O=C(Nc1ccc2cc(Br)cnc2n1)C(F)(F)F [CBK063313] | 90 |  |
| N#Cc1nc(/C=C/c2cccs2)oc1NCCCn1ccnc1 [CBK269455] | 84.1 |  |
| Nc1ccc(C(=O)Nc2ccc(Nc3cc(-c4ccco4)ncn3)cc2)cc1 [CBK091099] | 96.5 |  |
| Cc1cccc(N(CC(=O)NCc2ccco2)S(=O)(=O)c2ccccc2)c1 [CBK263571] | 87.7 |  |
| O=C(c1ccsc1NS(=O)(=O)Cc1ccccc1[N+](=O)[O-])N1CCOCC1 [CBK042294] | 89.6 |  |
| Cc1cc(/C=C(/C#N)c2ccc([N+](=O)[O-])cc2)c(C)n1-c1ccc(S(N)(=O)=O)cc1 [CBK266737] | 108 |  |
| O=C(O)CNC(=O)c1ccc(S(=O)(=O)N2CCOCC2)cc1 [CBK267437] | 112 |  |

| SMILES | viability at 28.5 h, 10 µM [%] | viability at 28.5 h, 10 µM (bulk resorufin, single well) [%] |
| --- | --- | --- |
| O=C(CSc1n[nH]c(=O)n1Cc1ccccc1)NCc1ccc(-c2ccc(Cl)cc2)o1 [CBK296963] | 102 |  |
| O=C(O)C1CCCCC1C(=O)Nc1cccc2ccccc12 (centres unmarked) [CBK261569] | 101 |  |
| O=c1[nH]c(CNc2ccccc2)nc2ccccc12 [CBK288038] | 103 |  |
| O=C(Cn1cnnn1)N1CCc2ccccc2C1 [CBK200335] | 101 |  |
| O=C(Nc1sccc1C(=O)N1CCOCC1)C(Sc1ccccc1)c1ccccc1 (centres unmarked) [CBK268165] | 95 |  |
| Cc1c(CNCCN2CCCC2=O)c2ccccc2n1C [CBK281519] | 84.6 |  |
| CC(=O)NCCN1CCC(O)(c2ccc(C)cc2)CC1 [CBK283321] | 87.6 |  |
| CCc1nccn1CCC(=O)Nc1ccc2c(c1)CCN2C(C)=O [CBK281446] | 90.9 |  |
| Cc1nc(-c2ccccc2)sc1CNC(=O)CCC(F)(F)F [CBK092365] | 102 |  |
| Cc1cc(-c2cc(=O)n(Cc3ccccc3C)nc2-c2ccco2)on1 [CBK282878] | 96.7 |  |
| O=C(CN1CCN(c2cc(-c3ccsc3)ncn2)CC1)N1CCCC1 [CBK091074] | 99.9 |  |
| Cc1ccc(C(=O)N(Cc2ccncc2)C2CCCCC2)cc1C [CBK085386] | 97.9 |  |
| Cc1ccc(NC(=O)C2CCCCC2C(=O)O)cc1Cl (centres unmarked) [CBK286938] | 99.9 |  |
| CC1(C)COC(=O)N1C1CCN(C(=O)CNC(=O)c2cccs2)CC1 [CBK044501] | 93.1 |  |
| NS(=O)(=O)c1ccc(CCNC(=O)c2ccc(C#CC3(O)CCCCC3)cc2)cc1 [CBK263104] | 93.9 |  |
| O=C(Nc1ccc2c(c1)COC1(CCNCC1)O2)c1cc2cc(Cl)ccc2[nH]1 [CBK091529T] |  | 71.3 |
| CCC1CCCCN1C(=O)Cc1c(C)nc(-c2cccnc2)[nH]c1=O (centres unmarked) [CBK306240] | 91.6 |  |
| COc1ccc(CCc2nc(C)cc(CN(C)C)c2O)cc1OC [CBK278320C] | 89 |  |
| COc1ccc(C(NC(=O)C2CCN(Cc3ccc4c(c3)OCO4)CC2)c2ccccc2C)cn1 (centres unmarked) [CBK081453T] | 121 |  |
| NC(=O)c1c(F)cccc1-c1cc(NCCO)nc2[nH]ccc12 [CBK306689] | 112 |  |
| CC(CCCc1ccccc1)NC(=O)c1cc2c([nH]c1=O)CCC2 (centres unmarked) [CBK281528] | 87.6 |  |

From paper PMC12040169 (PLOS Biology, 2025)
